This is an account of results in patent publication US12590100B2, “Tetrahydro-spiroindoline-pyrrolopyrrole-triones inhibitors of the NRF2-β-TrCP interaction for use in the treatment of fatty liver disease” (Universidad Autonoma De Madrid, priority 2021, dated 2026).

The subject of this test is β-TrCP1 and β-TrCP2. Description: NRF2/HO-1 induction after lentiviral silencing of β-TrCP1/2 in Keap1−/− MEFs. The class given is cell-based, mouse. On the procedure: In vitro kinase assay and in vitro ubiquitination. For the recognition and degradation of NRF2 by βTrCP, the serines 335, 338, 342 and 347 located at the Neh6 domain of NRF2 need to be previously phosphorylated by the kinase GSK-3β (FIG. 1). Therefore, to obtain the phosphorylated substrate, 20 ng recombinant NRF2-DETGE was used together with 0.5 μg of recombinant GSK-3β incubated at 30° C. for 60 min. The result was analyzed by western blot. After confirming the existence of phosphorylation in the residues of interest, an in vitro ubiquitination assay was carried out using the recombinant proteins that make up the E3 ubiquitin ligase complex. The ubiquitination reaction was carried out using: ATP (2 mM), […], SCF-βTrCP (450 nM), and non-phosphorylated or phosphorylated NRF2 (20 ng), in a specific ubiquitination buffer (30 mM Tris pH 7.6, 5 mM MgCl2, 2 mM dithiothreitol, 100 mM NaCl). Before the ubiquitination reactions, the E1, Cdc34b, and ubiquitin components were incubated together for 2 min to allow the E2 thioester bond to form. The reactions were incubated for 1 hour at 25° C. in the presence or absence of PHAR (3 μM) in order to determine whether or not PHAR inhibits ubiquitination by βTrCP. […] The PI3K/AKT signaling pathway is inhibited, and therefore GSK-3β is activated with the PI3K inhibitor, LY294002. As a result, NRF2 is phosphorylated by GSK-3β and marked for degradation by means of interaction with β-TrCP. Therefore, if PHAR is capable of inhibiting βTrCP-NRF2 interaction, the NRF2 levels will remain stable independently of the activation and phosphorylation by GSK-3β. The obtained result corroborates this. • 3. Using lentiviral silencing of the two isoforms described for β-TrCP (β-TrCP1 and β-TrCP2) in MEFs originating from Keap1 knockout mice (Keap′1−/−).
FIG. 6. PHAR increases NRF2 protein levels in a β-TrCP-dependent manner. A) In vitro phosphorylation of recombinant NRF2-DETGE by recombinant GSK-3β. Phosphorylation at residues 335, 338, 342 and 347 was analyzed by western blot. B) In vitro ubiquitination of NRF2 or pNRF2 by the βTrCP complex. NRF2 and pNRF2 (20 ng) were incubated at 25° C. for 1 h with purified ubiquitin, E1/cdc34b, βTrCP/Skp1 and Cull/Rbx1 as indicated in the presence or absence of PHAR […] or vehicle (DMSO). Polyubiquitinated NRF2 was detected by western blot with anti-ubiquitin antibody. […] E), densitometric analysis of NRF2 protein levels of the representative immunoblot of (D), expressed as a ratio of NRF2/GAPDH. […] G), densitometric analysis of NRF2 and HO1 protein levels of the representative immunoblots of (F), expressed as a ratio of NRF2 and HO1/GAPDH. […]

“Also recorded” adds a separate entry of the source.

`O=C1[C@@H]2[C@H](Cc3c[nH]c4ccccc34)N[C@]3(C(=O)Nc4ccc(Cl)cc43)[C@@H]2C(=O)N1c1ccc2c(c1)OCCO2` [PHAR]: for the setting “PHAR 10 μM”, the “HO-1 accumulation in sh β-TrCP1/2 cells compared with shCTRL” value was “considerably lower; also recorded: lower in cells lacking β-TrCP1/2”; the “Hmox1 and Nqo1 mRNA induction in sh β-TrCP1/2 cells” value was “induction generated by PHAR is lost”. Further, the “NRF2 levels in shCTRL cells” value (PHAR 10 μM, 2, 4, 8 h) was “increase in NRF2 levels from 2 h to 8 h”. Also, the “NRF2 accumulation in sh β-TrCP1/2 cells compared with shCTRL” value (silencing about 50%, PHAR 10 μM) is on record as “considerably lower; also recorded: significantly lower compared with shCTRL cells”.
